21 molecules from ChEMBL document CHEMBL3044821, “Microwave-induced CAN promoted atom-economic synthesis of 1H-benzo[b]xanthene and 4H-benzo[g]chromene derivatives of N-allyl quinolone and their antimicrobial activity” (2013) can be followed below.

≈ marks a conversion by molar mass, not a printed value.

Common to all, as to format: functional
Assay [1] relates to Pseudomonas aeruginosa. The assay is described as follows: Antibacterial activity against Pseudomonas aeruginosa MTCC 1688 assessed as growth inhibition after 24 to 48 hr by NCCLS broth microdilution method.
The test system of assay [2] is Escherichia coli. The assay is described as follows: Antibacterial activity against Escherichia coli MTCC 443 assessed as growth inhibition after 24 to 48 hr by NCCLS broth microdilution method.
Assay [3] deals with Streptococcus pyogenes. The assay is described as follows: Antibacterial activity against Streptococcus pyogenes MTCC 442 assessed as growth inhibition after 24 to 48 hr by NCCLS broth microdilution method. On the technique in general: Broth dilution looks for growth in wells or tubes with falling amounts of substance.
Assay [4] relates to Staphylococcus aureus. The assay is described as follows: Antibacterial activity against Staphylococcus aureus MTCC 96 assessed as growth inhibition after 24 to 48 hr by NCCLS broth microdilution method.
In assay [5] the test system is Candida albicans. The assay is described as follows: Antifungal activity against Candida albicans MTCC 227 assessed as growth inhibition after 24 to 48 hr by NCCLS broth microdilution method.
Assay [6] concerns Aspergillus niger. The assay is described as follows: Antifungal activity against Aspergillus niger MTCC 282 assessed as growth inhibition after 24 to 48 hr by NCCLS broth microdilution method.
Assay [7] relates to Aspergillus clavatus. The assay is described as follows: Antifungal activity against Aspergillus clavatus MTCC 1323 assessed as growth inhibition after 24 to 48 hr by NCCLS broth microdilution method.

By MIC is commonly meant the least concentration at which growth counts as inhibited. Regarding `O=C(N[C@H](CO)[C@H](O)c1ccc([N+](=O)[O-])cc1)C(Cl)Cl` [CHLORAMPHENICOL], the MIC in assay [1], in assay [2], in assay [3] and in assay [4] was 50 µg/mL (≈ 155 µM) each time.

Regarding `C=CCn1c(=O)c(C2C(C(=O)OC(C)C)=C(N)OC3=C2C(=O)c2ccccc2C3=O)cc2cc(OC)ccc21` (stereo not drawn), the MIC in assay [5] worked out at 1000 µg/mL (≈ 1900 µM); in assay [1] it was 200 µg/mL (≈ 380 µM); in assay [2] it was 250 µg/mL (≈ 475 µM); in assay [3], 200 µg/mL (≈ 380 µM); in assay [4], 100 µg/mL (≈ 190 µM); in assay [6], 500 µg/mL (≈ 950 µM). The minimum inhibitory concentration (MIC) in assay [7] turned out to be 500 µg/mL (≈ 950 µM).

Turning to `C=CCn1c(=O)c(C2C3=C(CCCC3=O)OC3=C2C(=O)c2ccccc2C3=O)cc2cc(C)ccc21` (stereo not drawn), the MIC was 500 µg/mL (≈ 1050 µM) in assay [5]; 250 µg/mL (≈ 524 µM) in assay [1]; 500 µg/mL (≈ 1050 µM) in assay [2]; 250 µg/mL (≈ 524 µM) in assay [3]; 250 µg/mL (≈ 524 µM) in assay [4]; 1000 µg/mL (≈ 2090 µM) in assay [6]. Further, in assay [7], the MIC turned out to be 1000 µg/mL (≈ 2090 µM).

Regarding NYSTATIN, the MIC in assay [5], in assay [6] and in assay [7] was 100 µg/mL throughout.

With `C=CCn1c(=O)c(C2C(C(=O)OC(C)C)=C(N)OC3=C2C(=O)c2ccccc2C3=O)cc2cc(C)ccc21` (stereo not drawn), the MIC in assay [5] is greater than 1000 µg/mL; in assay [1] it was 250 µg/mL (≈ 490 µM); in assay [2], 25 µg/mL (≈ 49 µM); in assay [3] it was 500 µg/mL (≈ 979 µM); in assay [4], 125 µg/mL (≈ 245 µM); in assay [6], 1000 µg/mL (≈ 1960 µM). Besides, the MIC in assay [7] worked out at 500 µg/mL (≈ 979 µM).

As for `C=CCn1c(=O)c(C2C3=C(CCCC3=O)OC3=C2C(=O)c2ccccc2C3=O)cc2cc(Cl)ccc21` (stereo not drawn), the MIC was found to be 500 µg/mL (≈ 1000 µM) in assay [5]; 62.5 µg/mL (≈ 126 µM) in assay [1]; 250 µg/mL (≈ 502 µM) in assay [2]; 50 µg/mL (≈ 100 µM) in assay [3]; 500 µg/mL (≈ 1000 µM) in assay [4]; 1000 µg/mL (≈ 2010 µM) in assay [6]. Besides, the MIC in assay [7] worked out at 100 µg/mL (≈ 201 µM).

Turning to `C=CCn1c(=O)c(C2C3=C(CC(C)(C)CC3=O)OC3=C2C(=O)c2ccccc2C3=O)cc2cc(OC)ccc21` (stereo not drawn), the MIC in assay [5] stood at 1000 µg/mL (≈ 1920 µM); in assay [1], 100 µg/mL (≈ 192 µM); in assay [2] it was 125 µg/mL (≈ 240 µM); in assay [3] it was 250 µg/mL (≈ 479 µM); in assay [4] it was 500 µg/mL (≈ 959 µM); in assay [6], 500 µg/mL (≈ 959 µM). In assay [7], the MIC turned out to be 500 µg/mL (≈ 959 µM).

For `C=CCn1c(=O)c(C2C(C#N)=C(N)OC3=C2C(=O)c2ccccc2C3=O)cc2ccccc21` (stereo not drawn), the MIC in assay [5] amounted to 250 µg/mL (≈ 574 µM); in assay [1] it was 250 µg/mL (≈ 574 µM); in assay [2], 100 µg/mL (≈ 230 µM); in assay [3] it was 250 µg/mL (≈ 574 µM); in assay [4], 62.5 µg/mL (≈ 144 µM); in assay [6], 500 µg/mL (≈ 1150 µM). Further, the MIC in assay [7] was greater than 1000 µg/mL.

As to `C=CCn1c(=O)c(C2C(C(=O)OC(C)C)=C(N)OC3=C2C(=O)c2ccccc2C3=O)cc2ccccc21` (stereo not drawn), the MIC worked out at 500 µg/mL (≈ 1010 µM) in assay [5]; 50 µg/mL (≈ 101 µM) in assay [1]; 200 µg/mL (≈ 403 µM) in assay [2]; 250 µg/mL (≈ 504 µM) in assay [3]; 500 µg/mL (≈ 1010 µM) in assay [4]; 250 µg/mL (≈ 504 µM) in assay [6]. Further, the MIC in assay [7] was greater than 1000 µg/mL.

Regarding `C=CCn1c(=O)c(C2C(C#N)=C(N)OC3=C2C(=O)c2ccccc2C3=O)cc2cc(Cl)ccc21` (stereo not drawn), the MIC in assay [5] worked out at 500 µg/mL (≈ 1060 µM); in assay [1] it was 500 µg/mL (≈ 1060 µM); in assay [2] it was 200 µg/mL (≈ 426 µM); in assay [3] it was 100 µg/mL (≈ 213 µM); in assay [4], 500 µg/mL (≈ 1060 µM); in assay [6], 1000 µg/mL (≈ 2130 µM). Besides, in assay [7], the MIC amounted to 100 µg/mL (≈ 213 µM).

Regarding `C=CCn1c(=O)c(C2C3=C(CCCC3=O)OC3=C2C(=O)c2ccccc2C3=O)cc2ccccc21` (stereo not drawn), the minimal inhibitory concentration (MIC) in assay [5] came out at 250 µg/mL (≈ 539 µM); in assay [1] it was 250 µg/mL (≈ 539 µM); in assay [2] it was 200 µg/mL (≈ 432 µM); in assay [3], 125 µg/mL (≈ 270 µM); in assay [4], 200 µg/mL (≈ 432 µM); in assay [6] it was 500 µg/mL (≈ 1080 µM). In addition, in assay [7], the MIC is 500 µg/mL (≈ 1080 µM).

As to `C=CCn1c(=O)c(C2C(C#N)=C(N)OC3=C2C(=O)c2ccccc2C3=O)cc2cc(OC)ccc21` (stereo not drawn), the MIC in assay [5] was 1000 µg/mL (≈ 2150 µM); in assay [1], 200 µg/mL (≈ 430 µM); in assay [2], 125 µg/mL (≈ 269 µM); in assay [3], 200 µg/mL (≈ 430 µM); in assay [4] it was 250 µg/mL (≈ 537 µM); in assay [6], greater than 1000 µg/mL. In addition, the MIC in assay [7] is 1000 µg/mL (≈ 2150 µM).

On to `C=CCn1c(=O)c(C2C(C(=O)OC(C)C)=C(N)OC3=C2C(=O)c2ccccc2C3=O)cc2cc(Cl)ccc21` (stereo not drawn), for which the MIC in assay [5] was 500 µg/mL (≈ 942 µM); in assay [1] it was 100 µg/mL (≈ 188 µM); in assay [2], 200 µg/mL (≈ 377 µM); in assay [3], 500 µg/mL (≈ 942 µM); in assay [4], 500 µg/mL (≈ 942 µM); in assay [6], 100 µg/mL (≈ 188 µM). Besides, the MIC in assay [7] came out at 250 µg/mL (≈ 471 µM).

On to `C=CCn1c(=O)c(C2C3=C(CCCC3=O)OC3=C2C(=O)c2ccccc2C3=O)cc2cc(OC)ccc21` (stereo not drawn), for which the MIC is 1000 µg/mL (≈ 2030 µM) in assay [5]; 20 µg/mL (≈ 40.5 µM) in assay [1]; 250 µg/mL (≈ 507 µM) in assay [2]; 500 µg/mL (≈ 1010 µM) in assay [3]; 500 µg/mL (≈ 1010 µM) in assay [4]; 100 µg/mL (≈ 203 µM) in assay [6]. Further, the MIC in assay [7] turned out to be 1000 µg/mL (≈ 2030 µM).

Turning to `C=CCn1c(=O)c(C2C(C#N)=C(N)OC3=C2C(=O)c2ccccc2C3=O)cc2cc(C)ccc21` (stereo not drawn), the MIC in assay [5] worked out at 1000 µg/mL (≈ 2220 µM); in assay [1] it was 500 µg/mL (≈ 1110 µM); in assay [2], 250 µg/mL (≈ 556 µM); in assay [3], 100 µg/mL (≈ 222 µM); in assay [4], 200 µg/mL (≈ 445 µM); in assay [6] it was 500 µg/mL (≈ 1110 µM). Further, the MIC in assay [7] stood at 1000 µg/mL (≈ 2220 µM).

`C=CCn1c(=O)c(C2C3=C(CC(C)(C)CC3=O)OC3=C2C(=O)c2ccccc2C3=O)cc2ccccc21` (stereo not drawn): the MIC was greater than 1000 µg/mL in assay [5]; 100 µg/mL (≈ 203 µM) in assay [1]; 100 µg/mL (≈ 203 µM) in assay [2]; 200 µg/mL (≈ 407 µM) in assay [3]; 250 µg/mL (≈ 509 µM) in assay [4]; greater than 1000 µg/mL in assay [6]. For the same molecule, the MIC in assay [7] is greater than 1000 µg/mL.

For the molecule `COC1=CC(=O)C[C@@H](C)[C@]12Oc1c(Cl)c(OC)cc(OC)c1C2=O` [GRISEOFULVIN], the MIC in assay [5] is 500 µg/mL (≈ 1420 µM); in assay [6], 100 µg/mL (≈ 283 µM); in assay [7], 100 µg/mL (≈ 283 µM).

Turning to `O=C(O)c1cn(C2CC2)c2cc(N3CCNCC3)c(F)cc2c1=O` [CIPROFLOXACIN], the MIC was 25 µg/mL (≈ 75.4 µM) in assay [2], 50 µg/mL (≈ 151 µM) in assay [3] and 50 µg/mL (≈ 151 µM) in assay [4].

Take `CC1(C)S[C@@H]2[C@H](NC(=O)[C@H](N)c3ccccc3)C(=O)N2[C@H]1C(=O)O` [AMPICILLIN]: the MIC was found to be 100 µg/mL (≈ 286 µM) in assay [2], 100 µg/mL (≈ 286 µM) in assay [3] and 250 µg/mL (≈ 715 µM) in assay [4].

As for `C=CCn1c(=O)c(C2C3=C(CC(C)(C)CC3=O)OC3=C2C(=O)c2ccccc2C3=O)cc2cc(C)ccc21` (stereo not drawn), the minimal inhibitory concentration (MIC) was greater than 1000 µg/mL in assay [5]; 500 µg/mL (≈ 989 µM) in assay [1]; 62.5 µg/mL (≈ 124 µM) in assay [2]; 250 µg/mL (≈ 494 µM) in assay [3]; 500 µg/mL (≈ 989 µM) in assay [4]; 125 µg/mL (≈ 247 µM) in assay [6]. Further, in assay [7], the MIC was 1000 µg/mL (≈ 1980 µM).

Turning to `C=CCn1c(=O)c(C2C3=C(CC(C)(C)CC3=O)OC3=C2C(=O)c2ccccc2C3=O)cc2cc(Cl)ccc21` (stereo not drawn), the MIC in assay [5] is greater than 1000 µg/mL; in assay [1], 250 µg/mL (≈ 475 µM); in assay [2] it was 200 µg/mL (≈ 380 µM); in assay [3], 500 µg/mL (≈ 951 µM); in assay [4], 200 µg/mL (≈ 380 µM); in assay [6], 1000 µg/mL (≈ 1900 µM). For the same molecule, the MIC in assay [7] turned out to be 100 µg/mL (≈ 190 µM).
